The values that follow come from PMC5283680 (ACS chemical biology, 2016).

In brackets after ≈: the same amount, converted by molar mass. Where two headings read alike, the source gives them in different places. Positions of bridges follow the written chain, without caps; N, C: chain ends. Non-standard residues stand in square brackets, D forms with d. Residues, ends and D or L forms follow the SMILES beside them. d(aIle) = CC[C@H](C)[C@@H](N)C(=O)O; dNMeF = CN[C@H](Cc1ccccc1)C(=O)O Some results are limits rather than exact numbers.

In assay [1] the test system is Streptococcus salivarius ATCC 13419. Type of assay: cell-based.
Assay [2] deals with Enterococcus durans ATCC 6056. Type of assay: cell-based.
Another assay deals with gram-positive bacteria. The conditions noted are these: MIC assays; cited from earlier work.
In assay [3] the test system is four gram-positive bacteria. The assay can be described thus: MIC assays, summary over the four gram-positive bacteria. Type of assay: cell-based. The conditions noted are these: for MIC against the gram-positive bacteria studied: four gram-positive bacteria of Table 1.
The subject of assay [4] is Staphylococcus epidermidis ATCC 14990. Type of assay: cell-based.
In assay [5] the test system is Escherichia coli ATCC 10798. Type of assay: cell-based.
Assay [6] relates to Bacillus subtilis ATCC 6051. The assay can be described thus: microbe, parasite or virus in culture. Type of assay: cell-based.
Another assay concerns various Streptococcus. The conditions noted are these: cited from earlier work.
The subject of the next assay is E. coli. The note with it: cited from earlier work.
The mark [7] stands for this setting: Streptococcus salivarius ATCC 13419, homologues as TFA salts.
[8] abbreviates: Enterococcus durans ATCC 6056, homologues as TFA salts.
The mark [9] stands for this setting: Staphylococcus epidermidis ATCC 14990, homologues as TFA salts.
[10] abbreviates: Bacillus subtilis ATCC 6051, homologues as TFA salts.

In the case of `CC[C@H](C)[C@H](NC(=O)[C@@H](Cc1ccccc1)NC)C(=O)N[C@@H](CO)C(=O)N[C@H](CCC(N)=O)C(=O)N[C@@H](C(=O)N[C@H](C(=O)N[C@@H](CO)C(=O)N[C@H]1C(=O)N[C@@H](C)C(=O)N[C@@H](CCCNC(=N)N)C(=O)N[C@@H]([C@@H](C)CC)C(=O)O[C@H]1C)[C@@H](C)CC)[C@@H](C)CC` [Arg10-teixobactin], the MIC in assay [1] (ATCC 13419) was 1 µg/mL (≈ 0.804 µM); in assay [2] (ATCC 6056) it was 4 µg/mL (≈ 3.21 µM); in [4] (ATCC 14990) it was 1 µg/mL (≈ 0.804 µM); in assay [5], above 32 µg/mL; in [6] (ATCC 6051) it was 2 µg/mL (≈ 1.61 µM). The “activity relative to teixobactin” value (in the assay on gram-positive bacteria; in assay [3] (comparison of own MIC with original published values in related bacteria)) was “about an order of magnitude less active” in each case. Also, the “MIC against the gram-positive bacteria studied” value in assay [3] lay within 1 to 4 µg/mL.
As for `CC[C@H](C)[C@H](NC(=O)[C@@H](Cc1ccccc1)NC)C(=O)N[C@@H](CO)C(=O)N[C@H](CCC(N)=O)C(=O)N[C@@H](C(=O)N[C@H](C(=O)N[C@@H](CO)C(=O)N[C@H]1C(=O)N[C@@H](C)C(=O)N[C@@H](CCCCN)C(=O)N[C@@H]([C@@H](C)CC)C(=O)O[C@H]1C)[C@@H](C)CC)[C@@H](C)CC` [Lys10-teixobactin] (H-[dNMeF]IS[dQ][d(aIle)]IS[dT]AKI; ester 8-C (inferred); N-terminus assumed), the MIC is 0.5 µg/mL (≈ 0.411 µM) in assay [1] (ATCC 13419); 1 µg/mL (≈ 0.822 µM) in [2] (ATCC 6056); 0.25 µg/mL (≈ 0.206 µM) in assay [4] (ATCC 14990); above 32 µg/mL in assay [5]; 0.5 µg/mL (≈ 0.411 µM) in [6] (ATCC 6051). The “MIC values, times lower than Arg10-teixobactin” value in assay [3] (gram-positive bacteria, relative to Arg10-teixobactin) is reported as 2–4 times.
Compound `CN[C@H](CC(C)C)C(=O)N[C@H]1C(=O)N[C@@H](CC(N)=O)C(=O)N[C@H]2C(=O)N[C@H]3C(=O)N[C@H](C(=O)N[C@H](C(=O)O)c4cc(O)cc(O)c4-c4cc3ccc4O)[C@H](O)c3ccc(c(Cl)c3)Oc3cc2cc(c3O[C@@H]2O[C@H](CO)[C@@H](O)[C@H](O)[C@H]2O[C@H]2C[C@](C)(N)[C@H](O)[C@H](C)O2)Oc2ccc(cc2Cl)[C@H]1O` [vancomycin, reference compound] had an MIC in assay [6] (Bacillus subtilis, ATCC6051) of 1 µg/mL (≈ 0.69 µM).
In the case of ent-Arg10-teixobactin, the MIC in assay [1] (setting [7]) was determined as 1 µg/mL; in [2] (setting [8]), 4 µg/mL; in [4] (setting [9]), 2 µg/mL; in assay [6] (setting [10]) it was 2 µg/mL. Further, in [3] (gram-positive bacteria, MIC), the “activity relative to Arg10-teixobactin” value was “comparable activity”.
As to seco-Arg10-teixobactin, the MIC in [1] (setting [7]), in assay [2] (setting [8]), in assay [4] (setting [9]) and in [6] (setting [10]) was above 32 µg/mL throughout. The “MIC against the gram-positive bacteria studied” value in [3] is above 32 µg/mL.
Turning to teixobactin, the MIC with various Streptococcus is 0.02 to 0.15 µg/mL; in the assay on E. coli, 25 µg/mL.
